According to patent publication US20050107289A1, “Anti-microbial peptides and compositions” (priority 2001, published 2005):
Non-standard residues stand in square brackets, D forms with d. Residues, ends and D or L forms follow the SMILES beside them.

Tests used:
[1] = tested on: Streptococcus pneumoniae (ATCC 6301); type: cell-based
Summary of the method: (§1)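 MICs come from NCCLS-style (M7-A4) dilution testing, mostly microdilution, with an inoculum near 2.5×10^5 cfu/ml from 4000-fold-diluted overnight cultures. Peptide series were 2-fold steps spanning roughly 400–2 μg/ml, prepared in 9% aqueous sucrose with 5% DMSO.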

[2] = tested on: Bacillus cereus ATCC 11778; type: cell-based
Summary of the method: as §1

E. faecium SP180 = experiment: Time-killing curve, E. faecium SP180; type: cell-based, Enterococcus faecium; conditions: for time to kill effectively all bacteria / killing of bacteria: about 2 μg/ml, BHI broth
Procedure: (§2) The speed at which several of the cyclic peptides of the invention kill E. coli JM 109 (DE3), Enterococcus faecium SP 180 and S. aureus (MRSA) (ATCC No. 33591 and 33592) was further tested at room temperature and/or at 37° C. A lower temperature tends to enrich the bacterial cultures for mature bacteria because the bacteria are not growing quickly. […] The presence or absence of immature bacteria in the culture may influence the rate at which the bacteria are killed, because immature bacteria tend to be more susceptible to many forms of antibiotics.
FIGS. 11 and 12 illustrate the time course for killing E. faecium SP 180 with varying concentrations of KSKWLWLW (SEQ ID NO:12), at room temperature and at 37° C. Assays were performed in Brain Heart Infusion broth. As illustrated, somewhat shorter times and/or somewhat lower concentrations of this cyclic peptide are required to kill E. faecium SP180 at 37° C. than at room temperature. E. faecium SP180 is vancomycin resistant (vanA) and multiply resistant to several FDA approved antibiotics. […] This may be due to growth of a few survivors after the residual cyclic peptide within the culture has been exhausted because the amount of peptide employed in that assay was below the MIC value.

[3] = tested on: S. aureus (MRSA) (ATCC No. 33592); experiment: Time-killing curve, S. aureus MRSA ATCC 33592; type: cell-based, Staphylococcus aureus; conditions: about 4 μg/ml
Procedure: as §2
FIGS. 9 and 10 illustrate the time course for killing S. aureus (MRSA) (ATCC No. 33592) with varying concentrations of cyclo[KSKWLWLW] cyclic peptide (SEQ ID NO:12) at room temperature and at 37° C. […] This may be due to growth of a few survivors after the residual cyclic peptide within the culture has been exhausted because the amount of peptide employed in that assay was below the MIC value.

[4] = tested on: vancomycin resistant E. faecium (VREF)(ATCC 51575); experiment: Mouse peritonitis model, VREF protection; type: in vivo, mice; design: PD50 VREF: unit not given here; conditions: for PD50 VREF: Table 12, male Balb-C mice, IP infection, IP peptide; for In Vivo VREF PD50: Table 13; for protection of mice from VREF infection: single bolus IP dose of appropriate amount, 45-60 min after infection
Procedure: Vancomycin resistant Enterococcus faecium (VREF) bacteria (ATCC 51575) were grown at 37° C. in 60 mL of Brain Heart Infusion medium (BHI, Difco Laboratories) with agitation for 16 hours to a stationary phase. Cells were collected by centrifugation, washed twice with saline solution and resuspended in 6 mL of saline to a theoretical O.D.650 of 9-10 (determined by taking OD.650 of 10-20 fold diluted samples and correlating it to the original concentration). This suspension was diluted 15 times in a sterilized 5% mucin (Difco) in saline to a concentration of 5-7×10^8 cfu/ml (actual inoculum size was verified by colony counts on agar plates).
Peptides of the invention were tested in mice to ascertain whether they would protect the mice against bacterial infection using procedures similar to those described in N. Frimodt-Moller et al., The Mouse Peritonitis/Sepsis Model, in Zak et al. (eds.) HANDBOOK OF ANIMAL MODELS OF INFECTION 127-37 (Academic Press 1999).
Male Balb-C mice (6 weeks old, approximately 20 g) were used in the study. Staphylococcus aureus MRSA bacteria (ATCC 33591) were grown at 37° C. with agitation for 12 hours to a stationary phase. Cells were collected by centrifugation, washed twice with saline and resuspended to an O.D.650 of 1.4. This suspension was diluted ten times with saline and resuspended to a concentration of 3-5×10^7 cfu/ml. For each peptide five groups of eight mice per group were infected I.P. with 0.5 ml of the above Staphylococcus aureus MRSA preparation (lethal dose). Forty-five minutes to an hour after infection, each group was treated with a different dose of peptide and a control group received vehicle only. Mice were monitored for fourteen days; death was defined as the end point. Median protecting doses (PD50) were calculated following the Reed and Muench method. […] For IV and SQ models peptide was administered immediately after IP infection.

E. coli JM109(DE3) = type: cell-based, Escherichia coli; conditions: JM109
Summary of the method: as §1

Row | Structure (SMILES) | S. pneum. MIC [1] | B. cerius MIC [2] | time to kill effectively all bacteria (E. faecium SP180; 37° C.) | killing of bacteria (E. faecium SP180; room temperature) | rebound of bacterial population ([3]; 37° C.) | time to kill effectively all bacteria ([3]; 37° C.) | rebound of bacterial population ([3]; room temperature) | time to kill all S. aureus (MRSA) ([3]; room temperature) | PD50 E. faecium VREF infection [4] | PD50 VREF [4] | In Vivo VREF PD50 [4] | protection of mice from VREF infection [4] | E. coli MIC (E. coli JM109(DE3)) | rebound in bacterial viability (E. faecium SP180; 1 μg/ml, 37° C.) | time after which effectively no cfu can be detected (E. faecium SP180; 1 μg/ml, 37° C.) | surviving bacteria (E. faecium SP180; 1 μg/ml, room temperature)
1 | CC(C)C[C@H]1NC(=O)[C@H](Cc2c[nH]c3ccccc23)NC(=O)[C@@H](CCCCN)NC(=O)[C@H](CCCNC(=N)N)NC(=O)[C@@H](CCCNC(=N)N)NC(=O)[C@H](Cc2c[nH]c3ccccc23)NC(=O)[C@@H](CC(C)C)NC(=O)[C@H](Cc2c[nH]c3ccccc23)NC1=O [SEQ ID NO:18, cyclo-(D-Arg-Arg-D-Lys-Trp-D-Leu-Trp-D-Leu-Trp)] (cyclo([dR]R[dK]W[dL]W[dL]W)) | 5 µg/mL | 5 µg/mL | within one hour | within one hour | rebounds by about eight hours | within about one hour | no rebound is observed | ≤ 1 h | 7 mg/kg | 7 | 7 mg/kg | completely protect | 15 µg/mL |  |  | 
2 | CC(C)C[C@H]1NC(=O)[C@H](Cc2c[nH]c3ccccc23)NC(=O)[C@@H](CCCNC(=N)N)NC(=O)[C@H](CCC(N)=O)NC(=O)[C@@H](CCCCN)NC(=O)[C@H](Cc2c[nH]c3ccccc23)NC(=O)[C@@H](CC(C)C)NC(=O)[C@H](Cc2c[nH]c3ccccc23)NC1=O [SEQ ID NO:8, cyclo-(D-Lys-Gln-D-Arg-Trp-D-Leu-Trp-D-Leu-Trp)] (cyclo([dK]Q[dR]W[dL]W[dL]W)) |  |  |  |  |  |  |  |  |  |  |  |  | 80 µg/mL |  |  | 
3 | CC(C)C[C@H]1NC(=O)[C@H](Cc2c[nH]c3ccccc23)NC(=O)[C@@H](CCCCN)NC(=O)[C@H](CO)NC(=O)[C@@H](CCCCN)NC(=O)[C@H](Cc2c[nH]c3ccccc23)NC(=O)[C@@H](CC(C)C)NC(=O)[C@H](Cc2c[nH]c3ccccc23)NC1=O [SEQ ID NO:12, D-Lys-Ser-D-Lys-Trp-D-Leu-Trp-D-Leu-Trp] (cyclo([dK]S[dK]W[dL]W[dL]W)) | 10 µg/mL | < 3 µg/mL | faster than an aliquot can be removed from the test culture | discernible numbers of surviving bacteria can be detected immediately | rebounds by about six hours | within about one hour | no rebound is observed | ≤ 2 h | 5 mg/kg | 5 | 5 mg/kg | completely protect | 40 µg/mL | rebound in bacterial viability | 2 h | viable bacteria can be detected throughout the entire time-course
